Results from patent US20070128217A1 (priority 2003, published 2007).

Columns and labels:
[1] = test system: rabbit serum obtained by immunizing a rabbit with the SARS-CoV strain Frankfurt 1; format: binding; parameters: Binding of a rabbit serum to linear peptides / Binding of a rabbit serum to looped peptides / Rabbit serum linear peptides / Rabbit serum looped peptides / Binding of a rabbit serum to linear peptides of protein N of SARS-CoV Urbani (Rabbit serum linear peptides) / Binding of a rabbit serum to looped/cyclic peptides of protein N of SARS-CoV Urbani (Rabbit serum looped peptides): unit not given here
[2] = test system: antibodies in sera from SARS patients (sera 1a, 1b, 2, 6, 37, 62, London, SARS-yellow, SARS-green); format: binding, human; parameters: Binding of serum 6 to linear peptides of protein X1 of SARS-CoV Urbani / Binding of serum 37 to linear peptides of protein X1 of SARS-CoV Urbani / Binding of serum 6 to looped/cyclic peptide (PEPSCAN-ELISA) / Binding of serum 37 to looped/cyclic peptide (PEPSCAN-ELISA) / Binding of serum 37 to looped/cyclic peptides of protein X1 of SARS-CoV Urbani / Binding of serum 6 to linear peptides of protein X2 / Binding of serum 37 to linear peptides of protein X2 / Binding of serum 37 to looped/cyclic peptides of protein X2 of SARS-CoV Urbani / Binding of serum 6 to linear peptides of protein M of SARS-CoV Urbani / Binding of serum 37 to linear peptides of protein M of SARS-CoV Urbani / Binding of serum 6 to looped/cyclic peptides of protein M of SARS-CoV Urbani / Binding of serum 37 to looped/cyclic peptides of protein M of SARS-CoV Urbani / Binding of serum 6 to linear peptides of protein X3 of SARS-CoV Urbani / Binding of serum 37 to linear peptides of protein X3 of SARS-CoV Urbani / Binding of serum 37 to looped/cyclic peptides of protein X3 of SARS-CoV Urbani / Binding of serum 6 to linear peptides of protein X4 of SARS-CoV Urbani / Binding of serum 37 to linear peptides of protein X4 of SARS-CoV Urbani / Binding of serum 37 to looped/cyclic peptides of protein X4 of SARS-CoV Urbani / Binding of serum 6 to linear peptides of protein X5 of SARS-CoV Urbani / Binding of serum 37 to linear peptides of protein X5 of SARS-CoV Urbani / Binding of serum 37 to looped/cyclic peptides of protein X5 of SARS-CoV Urbani / Binding of serum 6 to linear peptides of protein N of SARS-CoV Urbani / Binding of serum 37 to linear peptides of protein N of SARS-CoV Urbani / Binding of serum 6 to linear peptide (PEPSCAN-ELISA) / Binding of serum 1a to looped/cyclic peptides of protein N of SARS-CoV Urbani / Binding of serum 1b to looped/cyclic peptides of protein N of SARS-CoV Urbani / Binding of serum 2 to looped/cyclic peptides of protein N of SARS-CoV Urbani / Binding of serum 6 to looped/cyclic peptides of protein N of SARS-CoV Urbani / Binding of serum 37 to looped/cyclic peptides of protein N of SARS-CoV Urbani / Binding of serum 62 to looped/cyclic peptides of protein N of SARS-CoV Urbani / Binding of serum London to looped/cyclic peptides of protein N of SARS-CoV Urbani / Binding of serum SARS-green to looped/cyclic peptides of protein N of SARS-CoV Urbani: unit not given here
[3] = test system: control sera (pooled serum of ten healthy LUMC hospital workers; commercial negative donor pooled serum from the Dutch bloodbank); format: binding, human; parameters: Binding of Control serum LUMC to linear peptides / Binding of Control serum Blood-bank to linear peptides / Binding of Control serum LUMC to looped peptides / Binding of Control Serum Blood-Bank to Looped peptides / Binding of Control serum LUMC to linear peptides of the protein M of SARS-CoV Urbani / Binding of Control serum Blood-bank to linear peptides of the protein M of SARS-CoV Urbani / Binding of Control serum LUMC to looped peptides of the protein M of SARS-CoV Urbani / Binding of Control Serum Blood-Bank to Looped peptides of the protein M of SARS-CoV Urbani: unit not given here

WKCKSKNPLLYDANY
Binding of a rabbit serum to linear peptides [1]: 0.1 | Binding of a rabbit serum to looped peptides [1]: 0.6 | Binding of serum 1a to linear peptides of protein X1 of SARS-CoV Urbani [2]: 0.8 | Binding of serum 1a to looped/cyclic peptide (PEPSCAN-ELISA) [2]: 0.6 | Binding of serum 1b to linear peptides of protein X1 of SARS-CoV Urbani [2]: 0.8 | Binding of serum 1b to looped/cyclic peptide (PEPSCAN-ELISA) [2]: 0.5 | Binding of serum 2 to linear peptides of protein X1 of SARS-CoV Urbani [2]: 0.6 | Binding of serum 2 to looped/cyclic peptide (PEPSCAN-ELISA) [2]: 0.4 | Binding of serum 6 to linear peptides of protein X1 of SARS-CoV Urbani [2]: 0.7 | Binding of serum 6 to looped/cyclic peptide (PEPSCAN-ELISA) [2]: 0.3 | Binding of serum 37 to linear peptides of protein X1 of SARS-CoV Urbani [2]: 0.8 | Binding of serum 37 to looped/cyclic peptide (PEPSCAN-ELISA) [2]: 0.6 | Binding of serum 62 to linear peptides of protein X1 of SARS-CoV Urbani [2]: 0.7 | Binding of serum 62 to looped/cyclic peptide (PEPSCAN-ELISA) [2]: 0.6 | Binding of serum London to linear peptides of protein X1 of SARS-CoV Urbani [2]: 0.3 | Binding of serum London to looped/cyclic peptide (PEPSCAN-ELISA) [2]: 0.2 | Binding of serum SARS-green to linear peptides of protein X1 of SARS-CoV Urbani [2]: 0.4 | Binding of serum SARS-green to looped/cyclic peptide (PEPSCAN-ELISA) [2]: 0.3 | Binding of serum SARS-yellow to linear peptides of protein X1 of SARS-CoV Urbani [2]: 0.5 | Binding of serum SARS-yellow to looped/cyclic peptide (PEPSCAN-ELISA) [2]: 0.5 | Binding of Control Serum Blood-Bank to Looped peptides [3]: 0.6 | Binding of Control serum Blood-bank to linear peptides [3]: 0.7 | Binding of Control serum LUMC to linear peptides [3]: 0.8 | Binding of Control serum LUMC to looped peptides [3]: 0.5

WLCALGKVLPFHRWH
Rabbit serum linear peptides [1]: 0.6 | Rabbit serum looped peptides [1]: 0.8 | Binding of serum 1a to linear peptides of protein X5 of SARS-CoV Urbani [2]: 0.7 | Binding of serum 1a to looped/cyclic peptides of protein X5 of SARS-CoV Urbani [2]: 0.5 | Binding of serum 1b to linear peptides of protein X5 of SARS-CoV Urbani [2]: 0.6 | Binding of serum 1b to looped/cyclic peptides of protein X5 of SARS-CoV Urbani [2]: 0.4 | Binding of serum 2 to linear peptides of protein X5 of SARS-CoV Urbani [2]: 0.7 | Binding of serum 2 to looped/cyclic peptides of protein X5 of SARS-CoV Urbani [2]: 0.6 | Binding of serum 6 to linear peptides of protein X5 of SARS-CoV Urbani [2]: 0.8 | Binding of serum 6 to looped/cyclic peptides of protein X5 of SARS-CoV Urbani [2]: 0.7 | Binding of serum 37 to linear peptides of protein X5 of SARS-CoV Urbani [2]: 0.7 | Binding of serum 37 to looped/cyclic peptides of protein X5 of SARS-CoV Urbani [2]: 0.5 | Binding of serum 62 to linear peptides of protein X5 of SARS-CoV Urbani [2]: 0.8 | Binding of serum 62 to looped/cyclic peptides of protein X5 of SARS-CoV Urbani [2]: 0.7 | Binding of serum London to linear peptides of protein X5 of SARS-CoV Urbani [2]: 0.8 | Binding of serum London to looped/cyclic peptides of protein X5 of SARS-CoV Urbani [2]: 0.5 | Binding of serum SARS-green to linear peptides of protein X5 of SARS-CoV Urbani [2]: 0.6 | Binding of serum SARS-green to looped/cyclic peptides of protein X5 of SARS-CoV Urbani [2]: 0.5 | Binding of serum SARS-yellow to linear peptides of protein X5 of SARS-CoV Urbani [2]: 0.2 | Binding of serum SARS-yellow to looped/cyclic peptides of protein X5 of SARS-CoV Urbani [2]: 0.6 | Binding of Control Serum Blood-Bank to Looped peptides [3]: 0.4 | Binding of Control serum Blood-bank to linear peptides [3]: 0.9 | Binding of Control serum LUMC to linear peptides [3]: 0.6 | Binding of Control serum LUMC to looped peptides [3]: 0.6

WLCWKCKSKNPLLYD
Binding of a rabbit serum to linear peptides [1]: 0.2 | Binding of a rabbit serum to looped peptides [1]: 0.6 | Binding of serum 1a to looped/cyclic peptide (PEPSCAN-ELISA) [2]: 0.8 | Binding of serum 1b to looped/cyclic peptide (PEPSCAN-ELISA) [2]: 0.6 | Binding of serum 2 to looped/cyclic peptide (PEPSCAN-ELISA) [2]: 0.6 | Binding of serum 6 to looped/cyclic peptide (PEPSCAN-ELISA) [2]: 0.6 | Binding of serum 37 to looped/cyclic peptide (PEPSCAN-ELISA) [2]: 0.9 | Binding of serum 62 to looped/cyclic peptide (PEPSCAN-ELISA) [2]: 0.7 | Binding of serum London to looped/cyclic peptide (PEPSCAN-ELISA) [2]: 0.3 | Binding of serum SARS-green to looped/cyclic peptide (PEPSCAN-ELISA) [2]: 0.4 | Binding of serum SARS-yellow to looped/cyclic peptide (PEPSCAN-ELISA) [2]: 0.6 | Recognition of the peptide by sera of SARS-CoV infected individuals, and form (linear, looped/cyclic) in which it is recognized [2]: recognized in linear form | Binding of Control Serum Blood-Bank to Looped peptides [3]: 0.7 | Binding of Control serum Blood-bank to linear peptides [3]: 0.6 | Binding of Control serum LUMC to linear peptides [3]: 0.7 | Binding of Control serum LUMC to looped peptides [3]: 0.8

WLLWPVTLACFVLAA
Rabbit serum linear peptides [1]: 0.3 | Rabbit serum looped peptides [1]: 0.3 | Binding of serum 1a to linear peptides of protein M of SARS-CoV Urbani [2]: 0.6 | Binding of serum 1a to looped/cyclic peptides of protein M of SARS-CoV Urbani [2]: 0.7 | Binding of serum 1b to linear peptides of protein M of SARS-CoV Urbani [2]: 0.5 | Binding of serum 1b to looped/cyclic peptides of protein M of SARS-CoV Urbani [2]: 0.3 | Binding of serum 2 to linear peptides of protein M of SARS-CoV Urbani [2]: 0.5 | Binding of serum 2 to looped/cyclic peptides of protein M of SARS-CoV Urbani [2]: 0.7 | Binding of serum 6 to linear peptides of protein M of SARS-CoV Urbani [2]: 0.4 | Binding of serum 6 to looped/cyclic peptides of protein M of SARS-CoV Urbani [2]: 0.5 | Binding of serum 37 to linear peptides of protein M of SARS-CoV Urbani [2]: 0.6 | Binding of serum 37 to looped/cyclic peptides of protein M of SARS-CoV Urbani [2]: 0.7 | Binding of serum 62 to linear peptides of protein M of SARS-CoV Urbani [2]: 0.6 | Binding of serum 62 to looped/cyclic peptides of protein M of SARS-CoV Urbani [2]: 0.7 | Binding of serum London to linear peptides of protein M of SARS-CoV Urbani [2]: 0.3 | Binding of serum London to looped/cyclic peptides of protein M of SARS-CoV Urbani [2]: 0.2 | Binding of serum SARS-green to linear peptides of protein M of SARS-CoV Urbani [2]: 0.3 | Binding of serum SARS-green to looped/cyclic peptides of protein M of SARS-CoV Urbani [2]: 0.3 | Binding of serum SARS-yellow to linear peptides of protein M of SARS-CoV Urbani [2]: 0.0 | Binding of serum SARS-yellow to looped/cyclic peptides of protein M of SARS-CoV Urbani [2]: 0.7 | Binding of Control Serum Blood-Bank to Looped peptides of the protein M of SARS-CoV Urbani [3]: 0.5 | Binding of Control serum Blood-bank to linear peptides of the protein M of SARS-CoV Urbani [3]: 0.4 | Binding of Control serum LUMC to linear peptides of the protein M of SARS-CoV Urbani [3]: 0.2 | Binding of Control serum LUMC to looped peptides of the protein M of SARS-CoV Urbani [3]: 0.6

WLSYFVASFRLFART
Rabbit serum linear peptides [1]: 0.2 | Rabbit serum looped peptides [1]: 0.4 | Binding of serum 1a to linear peptides of protein M of SARS-CoV Urbani [2]: 0.6 | Binding of serum 1b to linear peptides of protein M of SARS-CoV Urbani [2]: 0.5 | Binding of serum 2 to linear peptides of protein M of SARS-CoV Urbani [2]: 0.4 | Binding of serum 6 to linear peptides of protein M of SARS-CoV Urbani [2]: 0.4 | Binding of serum 37 to linear peptides of protein M of SARS-CoV Urbani [2]: 0.4 | Binding of serum 62 to linear peptides of protein M of SARS-CoV Urbani [2]: 0.4 | Binding of serum London to linear peptides of protein M of SARS-CoV Urbani [2]: 0.3 | Binding of serum SARS-green to linear peptides of protein M of SARS-CoV Urbani [2]: 0.4 | Binding of serum SARS-yellow to linear peptides of protein M of SARS-CoV Urbani [2]: 0.1 | Recognition of the peptide by sera of SARS-CoV infected individuals, and form (linear, looped/cyclic) in which it is recognized [2]: recognized in looped/cyclic form | Binding of Control Serum Blood-Bank to Looped peptides of the protein M of SARS-CoV Urbani [3]: 0.6 | Binding of Control serum Blood-bank to linear peptides of the protein M of SARS-CoV Urbani [3]: 0.7 | Binding of Control serum LUMC to linear peptides of the protein M of SARS-CoV Urbani [3]: 0.6 | Binding of Control serum LUMC to looped peptides of the protein M of SARS-CoV Urbani [3]: 0.8
